This is an account of results in patent publication US20260327264A1, “PEPTIDE INHIBITORS OF INTERLEUKIN-23 RECEPTOR” (Zealand Pharma A/S, priority 2023, published 2026).

The term IC50 denotes the concentration that inhibits the measured activity by half.

Molecules are shown by their SMILES. Where two headings read alike, the source gives them in different places. *1 amine or outer side, *2 acyl side, *3 side chain or, on linkers, in order; H or OH if unused. Where a SMILES comes first, the peptide text is derived from it. Bridges are numbered along the chain shown (N, C = ends). [ ]: non-standard residue; d: D form. 2Nal = N[C@@H](Cc1ccc2ccccc2c1)C(=O)O; AEF = NCCOc1ccc(C[C@H](N)C(=O)O)cc1; X1 = O=C(Cc1ccc(CN[*:1])cc1)[*:2]; 3Pal = N[C@@H](Cc1cccnc1)C(=O)O; αMeL = CC(C)C[C@](C)(N)C(=O)O; Dab = NCC[C@H](N)C(=O)O; Sar = CNCC(=O)O

In data set [1] the test system is IL-23 mediated STAT3 signalling (DB cells). The experiment in a line: Functional inhibition of IL-23 mediated STAT3 signalling (phospho-STAT3 Tyr705) in DB cells. Type of data set: cell-based, human. As to conditions: for hIL-23 (pSTAT3) antagonist % inhibition: Table 3-2, maximal inhibitory response, EC80 of hIL-23. Summed up:
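Phospho-STAT3 in lysed DB cells quantified by MSD kit after 90 min exposure to EC80 human IL-23, following 15 min compound pretreatment (37° C, 5% CO2). IC50 and maximal inhibition derived from curves normalized between IL-23-only and buffer-only controls.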

Data set [2] can be described thus: Peptide stability in simulated intestinal fluid (SIF). Type of data set: in vitro ADME. The conditions noted are these: simulated intestinal fluid; for remaining at 1 h, 10 µM: pig, SIF, pH 6.8, pancreatin, 37° C. The procedure, abridged: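 Peptide at 10 μM final in USP-type SIF (10 g/L porcine pancreatin, phosphate buffer pH 6.8), shaken at 37 °C. Samples at 0, 1 and 4 h quenched in acetonitrile/0.1% formic acid and analysed by LC-HRMS. Percent remaining calculated from absolute peak areas relative to time zero.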

Data set [3] in a line: Peptide stability in simulated gastric fluid (SGF). The data set is classed as in vitro ADME. As to conditions: pig, pH 1.2, pepsin, 37° C. Summed up:
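Peptide (10 μM final) incubated at 37 °C in USP SGF, pH 1.2 with porcine pepsin 3.2 g/L; aliquots at 0, 1 and 4 h quenched in acidified acetonitrile.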

[4] abbreviates: EC80 of hIL-23, read-out: IC50 (pSTAT3).
The mark [5] stands for this setting: Table 3-2, EC80 of hIL-23, read-out: hIL-23 (pSTAT3) antagonist IC50.

In the case of `CNC(=O)[C@H](Cc1cccnc1)NC(=O)[C@H](CCN)NC(=O)[C@@H]1CCC(=O)NCc2ccc(cc2)CC(=O)N[C@@H](CO)C(=O)N[C@H]2CCC(=O)NCC[C@H](NC(=O)[C@H](CCC(N)=O)NC(=O)[C@H](Cc3c[nH]c4ccccc34)NC2=O)C(=O)N[C@@H](Cc2ccc(OCCN)cc2)C(=O)N[C@@H](Cc2ccc3ccccc3c2)C(=O)N[C@@](C)(CC(C)C)C(=O)N1` [Compound 8, [4-Aminomethyl-phenylacetyl](1c)*SE(2c)WQ[Dab](2c)[Y(2-aminoethoxy)][2-Nal][2-Me-Leu]E(1c)[Dab][3-(3-Pyridyl)-Ala]-[NHMe]], the half-maximal inhibitory concentration (IC50) in data set [1] (setting [4]) and in data set [1] (setting [5]) was 53 pM throughout. Further, in data set [1], the “hIL-23 (pSTAT3) antagonist % inhibition” value is listed as 101%. The fraction remaining at 1 h, 10 µM in data set [2] is 96%; in data set [3] it was 91%. For the same molecule, the “SIF stability (in words)” value in data set [2] was “SIF stable”. The amount remaining at 4 h, 10 µM in data set [3] is 87%.

For the molecule `CC(C)C[C@]1(C)NC(=O)[C@H](Cc2ccc3ccccc3c2)NC(=O)[C@H](Cc2ccc(OCCN)cc2)NC(=O)[C@@H]2CCNC(=O)CC[C@H](NC(=O)[C@H](CO)NC(=O)Cc3ccc(cc3)CNC(=O)CC[C@@H](C(=O)N[C@@H](CCN)C(=O)N[C@@H](Cc3cccnc3)C(=O)N(C)CC(N)=O)NC1=O)C(=O)N[C@@H](Cc1c[nH]c3ccccc13)C(=O)N[C@@H](CCC(N)=O)C(=O)N2` [Compound 9, [4-Aminomethyl-phenylacetyl](1c)*SE(2c)WQ[Dab](2c)[Y(2-aminoethoxy)][2-Nal][2-Me-Leu]E(1c)[Dab][3-(3-Pyridyl)-Ala][Sar]-[NH2]] ([X1]SEWQ[Dab][AEF][2Nal][αMeL]E[Dab][3Pal][Sar]-NH2; lactam 3-6, N-10), the IC50 in data set [1] (setting [4]) turned out to be 25 pM. Moreover, the IC50 in data set [1] (setting [5]) worked out at 25 pM. Also, the “hIL-23 (pSTAT3) antagonist % inhibition” value in data set [1] was 97%. For the same molecule, in data set [2], the fraction remaining at 1 h, 10 µM was 102% and the “SIF stability (in words)” value is “SIF stable”. Besides, the share remaining at 4 h, 10 µM in data set [3] is 95%.

With `CNC(=O)[C@H](Cc1cccnc1)NC(=O)[C@H](CCN)NC(=O)[C@@H]1CCC(=O)NCc2ccc(cc2)CC(=O)N[C@@H](C)C(=O)N[C@H]2CCC(=O)NCC[C@H](NC(=O)[C@H](CCC(N)=O)NC(=O)[C@H](Cc3c[nH]c4ccccc34)NC2=O)C(=O)N[C@@H](Cc2ccc(OCCN)cc2)C(=O)N[C@@H](Cc2ccc3ccccc3c2)C(=O)N[C@@](C)(CC(C)C)C(=O)N1` [Compound 20, [4-Aminomethyl-phenylacetyl](1c)*AE(2c)WQ[Dab](2c)[Y(2-aminoethoxy)][2-Nal][2-Me-Leu]E(1c)[Dab][3-(3-Pyridyl)-Ala]-[NHMe]], the IC50 in data set [1] (setting [5]) amounted to 26 pM. For the same molecule, the “hIL-23 (pSTAT3) antagonist % inhibition” value in data set [1] amounted to 101%. In data set [3], the share remaining at 1 h, 10 µM was 107% and the share remaining at 4 h, 10 µM is 103%.

`CNC(=O)CC[C@@H]1NC(=O)[C@H](Cc2c[nH]c3ccccc23)NC(=O)[C@@H]2CCC(=O)NCC[C@H](NC1=O)C(=O)N[C@@H](Cc1ccc(OCCN)cc1)C(=O)N[C@@H](Cc1ccc3ccccc3c1)C(=O)N[C@@](C)(CC(C)C)C(=O)N[C@H](C(=O)N[C@@H](CCN)C(=O)N[C@@H](Cc1cccnc1)C(=O)NC)CCC(=O)NCc1ccc(cc1)CC(=O)N[C@@H](CO)C(=O)N2` [Compound 29, [4-Aminomethyl-phenylacetyl](1c)*SE(2c)W[Q(Me)][Dab](2c)[Y(2-aminoethoxy)][2-Nal][2-Me-Leu]E(1c)[Dab][3-(3-Pyridyl)-Ala]-[NHMe]] ([X1]SEWE(NHMe)[Dab][AEF][2Nal][αMeL]E[Dab][3Pal]-NHMe; lactam 3-6, N-10): in data set [1] (setting [5]), the half-maximal inhibitory concentration (IC50) stood at 42 pM. Besides, in data set [1], the “hIL-23 (pSTAT3) antagonist % inhibition” value came out at 99%. Also, the fraction remaining at 1 h, 10 µM in data set [2] is 91%. Moreover, in data set [3], the share remaining at 1 h, 10 µM was 94% and the amount remaining at 4 h, 10 µM was 90%.

For `CNC(=O)[C@H](Cc1cccnc1)NC(=O)[C@H](CCN)NC(=O)[C@@H]1CCC(=O)NCc2ccc(cc2)CC(=O)N[C@@H](C)C(=O)N[C@H]2CCC(=O)NCC[C@H](NC(=O)[C@H](CCC(N)=O)NC(=O)[C@H](Cc3c[nH]c4ccccc34)NC2=O)C(=O)N[C@@H](Cc2c[nH]c3ncccc23)C(=O)N[C@@H](Cc2ccc3ccccc3c2)C(=O)NC(C)(C)C(=O)N1` [Compound 43, [4-Aminomethyl-phenylacetyl](1c)*AE(2c)WQ[Dab](2c)[7-AzaTrp][2-Nal][Aib]E(1c)[Dab][3-(3-Pyridyl)-Ala]-[NHMe]], in data set [1] (setting [5]), the IC50 came out at 540 pM. Also, the “hIL-23 (pSTAT3) antagonist % inhibition” value in data set [1] amounted to 98%. The figures for the amount remaining at 1 h, 10 µM in data set [2] and in data set [3] were 96% and 105%, respectively.
